Measurements published in ChEMBL document CHEMBL1129369, “Forskolin carbamates: binding and activation studies with type I adenylyl cyclase” (J Med Chem, 1996).

Key:
Adenylate cyclase type 1 [1] = molecular target: T1, Adenylate cyclase type 1 (Homo sapiens, UniProt Q08828); assay: Ability to activate the conversion of [32P] ATP to [32P]-cyclic AMP mediated by adenylate cyclase 1; type: functional
Target sequence in this assay (Q08828 whole entry): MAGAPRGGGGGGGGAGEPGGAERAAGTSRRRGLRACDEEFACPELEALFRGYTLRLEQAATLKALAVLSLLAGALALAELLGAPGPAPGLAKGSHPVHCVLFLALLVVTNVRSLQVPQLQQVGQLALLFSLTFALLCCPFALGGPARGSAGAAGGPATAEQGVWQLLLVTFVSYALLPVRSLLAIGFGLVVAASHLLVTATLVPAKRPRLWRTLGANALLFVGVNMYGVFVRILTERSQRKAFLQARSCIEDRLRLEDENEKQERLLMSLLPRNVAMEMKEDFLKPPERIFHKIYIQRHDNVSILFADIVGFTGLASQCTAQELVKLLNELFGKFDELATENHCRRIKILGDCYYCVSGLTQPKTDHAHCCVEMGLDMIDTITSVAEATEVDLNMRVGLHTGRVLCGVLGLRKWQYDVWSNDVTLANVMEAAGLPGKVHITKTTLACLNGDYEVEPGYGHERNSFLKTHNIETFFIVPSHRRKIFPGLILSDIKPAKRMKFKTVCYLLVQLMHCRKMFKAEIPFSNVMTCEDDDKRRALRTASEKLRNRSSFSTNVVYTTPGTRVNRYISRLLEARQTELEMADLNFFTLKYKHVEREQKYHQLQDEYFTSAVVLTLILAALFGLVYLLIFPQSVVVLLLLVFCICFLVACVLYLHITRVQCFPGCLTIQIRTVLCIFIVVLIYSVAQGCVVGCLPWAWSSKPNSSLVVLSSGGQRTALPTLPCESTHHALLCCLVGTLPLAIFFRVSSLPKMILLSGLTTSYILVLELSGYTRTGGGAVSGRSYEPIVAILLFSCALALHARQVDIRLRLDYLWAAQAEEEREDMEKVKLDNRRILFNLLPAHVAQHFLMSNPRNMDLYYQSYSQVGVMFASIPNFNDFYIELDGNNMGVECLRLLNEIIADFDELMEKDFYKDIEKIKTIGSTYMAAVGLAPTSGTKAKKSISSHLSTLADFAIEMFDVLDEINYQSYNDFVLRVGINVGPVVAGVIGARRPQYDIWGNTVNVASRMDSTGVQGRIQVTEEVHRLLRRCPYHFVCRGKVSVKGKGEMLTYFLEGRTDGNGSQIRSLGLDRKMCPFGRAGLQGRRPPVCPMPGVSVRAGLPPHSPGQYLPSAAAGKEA

Adenylate cyclase type 1 [2] = molecular target: T1, Adenylate cyclase type 1; assay: (§1) Inhibition of [125 I]6-IHPP-forskolin binding to adenylate cyclase 1
Target sequence in this assay (Q08828 whole entry): as above

Adenylate cyclase type 1 [3] = molecular target: T1, Adenylate cyclase type 1; assay: as §1; remark: listed apart in the source
Target sequence in this assay (Q08828 whole entry): as above

Adenylate cyclase type 1 [4] = molecular target: T1, Adenylate cyclase type 1; assay: Maximum stimulation activity measured with 100 uM forskolin mediated by Adenylate cyclase 1; type: functional
Target sequence in this assay (Q08828 whole entry, looked up): as the sequence (Q08828 whole entry) above

Adenylate cyclase type 1 [5] = molecular target: T1, Adenylate cyclase type 1; assay: Conversion of [32P] ATP to [32P]-cyclic AMP mediated by adenylate cyclase 1; type: functional; conditions: read-out: EC50
Target sequence in this assay (Q08828 whole entry): as above

Adenylate cyclase type 2 = Adenylate cyclase type 2 (Rattus norvegicus, UniProt P26769); assay: Ability to activate the conversion of [32P] ATP to [32P]-cyclic AMP; type: functional
Adenylate cyclase type 2, sequence (P26769 whole entry): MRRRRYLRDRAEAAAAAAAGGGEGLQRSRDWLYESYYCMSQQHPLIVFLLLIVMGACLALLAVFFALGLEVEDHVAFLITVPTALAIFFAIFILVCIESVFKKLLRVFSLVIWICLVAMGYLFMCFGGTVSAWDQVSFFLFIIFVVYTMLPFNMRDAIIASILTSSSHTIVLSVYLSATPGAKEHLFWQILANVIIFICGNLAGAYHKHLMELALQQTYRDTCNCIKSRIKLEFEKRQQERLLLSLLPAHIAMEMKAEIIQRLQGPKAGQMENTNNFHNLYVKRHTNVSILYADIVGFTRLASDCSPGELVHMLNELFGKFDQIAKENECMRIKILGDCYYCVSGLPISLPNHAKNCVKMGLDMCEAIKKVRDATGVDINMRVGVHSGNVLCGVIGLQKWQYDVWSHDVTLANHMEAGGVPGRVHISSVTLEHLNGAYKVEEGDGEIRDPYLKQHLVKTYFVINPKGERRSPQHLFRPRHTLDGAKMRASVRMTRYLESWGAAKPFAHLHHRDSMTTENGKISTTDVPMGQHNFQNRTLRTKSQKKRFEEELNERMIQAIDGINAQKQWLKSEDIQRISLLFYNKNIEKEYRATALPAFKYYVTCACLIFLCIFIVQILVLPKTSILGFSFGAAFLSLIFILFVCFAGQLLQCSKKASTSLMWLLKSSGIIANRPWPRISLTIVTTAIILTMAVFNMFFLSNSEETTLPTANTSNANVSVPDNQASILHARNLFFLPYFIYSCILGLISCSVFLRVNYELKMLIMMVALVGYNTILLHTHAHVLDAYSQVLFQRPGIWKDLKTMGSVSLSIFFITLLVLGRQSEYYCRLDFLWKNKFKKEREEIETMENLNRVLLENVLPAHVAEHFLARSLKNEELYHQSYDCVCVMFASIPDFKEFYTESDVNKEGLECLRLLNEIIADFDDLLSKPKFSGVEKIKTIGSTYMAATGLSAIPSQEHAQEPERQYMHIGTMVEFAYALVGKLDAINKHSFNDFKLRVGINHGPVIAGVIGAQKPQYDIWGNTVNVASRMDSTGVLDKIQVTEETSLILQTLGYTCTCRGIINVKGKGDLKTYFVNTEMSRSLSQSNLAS

Adenylate cyclase type 1 [6] = molecular target: T1, Adenylate cyclase type 1; assay: Maximum stimulation activity measured with 100 uM forskolin mediated by adenylate cyclase 1; type: functional
Target sequence in this assay (Q08828 whole entry, looked up): as the sequence (Q08828 whole entry) above

Adenylate cyclase type 1 [7] = molecular target: T1, Adenylate cyclase type 1; assay: (§2) Inhibition of [125 I]6-IHPP-forskolin binding to Adenylate cyclase 1
Target sequence in this assay (Q08828 whole entry): as above

Adenylate cyclase type 1 [8] = molecular target: T1, Adenylate cyclase type 1; assay: as §2; type: functional
Target sequence in this assay (Q08828 whole entry): as above

Row | Structure (SMILES) | EC50 (Adenylate cyclase type 1 [1]) [nM] | IC50 (Adenylate cyclase type 1 [2]) [nM] | IC50 (Adenylate cyclase type 1 [3]) [nM] | Activity (Adenylate cyclase type 1 [4]) [%] | EC50 (Adenylate cyclase type 1 [5]) [nM] | EC50 (Adenylate cyclase type 2) [nM] | Activity (Adenylate cyclase type 1 [6]) [%] | IC50 (Adenylate cyclase type 1 [7]) [nM] | IC50 (Adenylate cyclase type 1 [8]) [nM]
1 | C=C[C@@]1(C)CC(=O)[C@]2(O)[C@@]3(C)[C@@H](O)CCC(C)(C)[C@@H]3[C@H](O)[C@H](OC(=O)NCCO)[C@@]2(C)O1 | < 2000 | 43 | < 150 | 119 | 1400 |  |  |  | 
2 | C=C[C@@]1(C)CC(=O)[C@]2(O)[C@@]3(C)[C@@H](O)CCC(C)(C)[C@@H]3[C@H](O)[C@H](OC(=O)NCCc3ccc(N)cc3)[C@@]2(C)O1 | < 2000 | 64 | < 150 | 68 | 1100 |  |  |  | 
3 | C=C[C@@]1(C)CC(=O)[C@]2(O)[C@@]3(C)[C@@H](O)CCC(C)(C)[C@@H]3[C@H](O)[C@H](OC(C)=O)[C@@]2(C)O1 [COLFORSIN] |  | 41 |  |  | 500 | < 2000 | 100 | < 150 | 
4 | C=C[C@@]1(C)CC(=O)[C@]2(O)[C@@]3(C)[C@@H](O)CCC(C)(C)[C@@H]3[C@H](OC(=O)NCCOC)[C@H](O)[C@@]2(C)O1 | > 2000 | 318 | > 150 | 84 | 3100 |  |  |  | 
5 | C=C[C@@]1(C)CC(=O)[C@]2(O)[C@@]3(C)[C@@H](O)CCC(C)(C)[C@@H]3[C@H](OC(=O)NCCC)[C@H](O)[C@@]2(C)O1 | > 2000 | 555 |  |  | 4900 |  | 61 |  | > 150
6 | C=C[C@@]1(C)CC(=O)[C@]2(O)[C@@]3(C)[C@@H](O)CCC(C)(C)[C@@H]3[C@H](O)[C@H](OC(=O)NCCN3CCCCC3)[C@@]2(C)O1 | < 2000 | 184 | > 150 | 81 | 1200 |  |  |  | 
7 | C=C[C@@]1(C)CC(=O)[C@]2(O)[C@@]3(C)[C@@H](O)CCC(C)(C)[C@@H]3[C@H](O)[C@H](OC(=O)NCCN(C)C)[C@@]2(C)O1 | > 2000 | 228 | > 150 | 89 | 2200 |  |  |  | 
8 | C=C[C@@]1(C)CC(=O)[C@]2(O)[C@@]3(C)[C@@H](O)CCC(C)(C)[C@@H]3[C@H](O)[C@H](OC(=O)NCCC(=O)OCC)[C@@]2(C)O1 | > 2000 | 185 | > 150 |  | 3600 |  | 127 |  | 
9 | C=C[C@@]1(C)CC(=O)[C@]2(O)[C@@]3(C)[C@@H](O)CCC(C)(C)[C@@H]3[C@H](OC(=O)NCCN)[C@H](OC(C)=O)[C@@]2(C)O1 | < 2000 | 31 | < 150 |  | 600 |  | 125 |  | 
